Activity calls are given as the source filed them. The rule behind the calls is not given here.
How the values were obtained:
S2 [1] = test: Induction of luciferase protein trans-splicing in Drosophila melanogaster S2 cells transfected with N-luc and C-luc assessed as increase in luciferase activity at 100 nM after 4 hrs by Western blot analysis; format: functional, cell-based
[2] = Induction of luciferase protein trans-splicing in Drosophila melanogaster S2 cells transfected with N-luc and C-luc and FRB assessed as increase in luciferase activity at 100 nM after 4 hrs relative to control; format: functional
S2 [3] = test: Induction of luciferase protein trans-splicing in Drosophila melanogaster S2 cells transfected with N-luc and C-lucFRB2 assessed as increase in luciferase activity pretreated with ascomycin for 60 mins measured at 100 nM after 4 hrs; format: functional, cell-based
[4] = Induction of luciferase protein trans-splicing in Drosophila melanogaster S2 cells transfected with N-luc and C-luc and 3 copies of FRB assessed as increase in luciferase activity at 100 nM after 4 hrs relative to control; format: functional
S2 [5] = test: Induction of luciferase protein trans-splicing in Drosophila melanogaster S2 cells transfected with N-luc and C-luc assessed as increase in luciferase activity at 100 nM after 4 hrs at 25 degC; format: functional, cell-based
[6] = Induction of luciferase protein trans-splicing in Drosophila melanogaster S2 cells transfected with N-luc and C-luc assessed as increase in luciferase activity at 100 nM after 4 hrs at 21 degC relative to control; format: functional
S2 [7] = test: Induction of luciferase protein trans-splicing in Drosophila melanogaster S2 cells transfected with N-luc C1A mutant and C-luc N45A mutant assessed as increase in luciferase activity at 100 nM after 4 hrs by Western blot analysis; format: functional, cell-based
Drosophila melanogaster [8] = test: Activation of luciferase in Drosophila melanogaster containing genomically integrated luciferase CPS at 100 uM by Western blot method; format: functional, organism-based
[9] = Induction of luciferase protein trans-splicing in Drosophila melanogaster S2 cells transfected with N-luc and C-luc assessed as increase in luciferase activity at 100 nM after 4 hrs at 28 degC relative to control; format: functional
S2 [10] = test: Induction of luciferase protein trans-splicing in Drosophila melanogaster S2 cells transfected with N-luc and C-lucFRB2 assessed as increase in luciferase activity pretreated with ascomycin for 15 mins measured at 100 nM after 4 hrs; format: functional, cell-based
S2 [11] = test: Induction of luciferase protein trans-splicing in Drosophila melanogaster S2 cells transfected with N-luc and C-luc assessed as increase in luciferase activity after 4 hrs by Western blot analysis; format: functional, cell-based
S2 [12] = test: Induction of luciferase protein trans-splicing in Drosophila melanogaster S2 cells transfected with N-luc and C-lucFRB2 assessed as increase in luciferase activity at 100 nM after 4 hrs; format: functional, cell-based; conditions: TDE = time-dependent effect
[13] = Induction of luciferase protein trans-splicing in Drosophila melanogaster S2 cells transfected with N-luc and C-luc and 2 copies of FRB assessed as increase in luciferase activity at 100 nM after 4 hrs relative to control; format: functional
Drosophila melanogaster [14] = test: Activation of luciferase in Drosophila melanogaster containing genomically integrated luciferase CPS at 100 uM; format: functional, organism-based

In the case of CO[C@H]1[C@@H](O)[C@H](C)C[C@H](C)/C=C/C=C/C=C(\C)[C@@H](c2c[nH]c3c(C)cccc23)C[C@@H]2CC[C@@H](C)[C@@](O)(O2)C(=O)C(=O)N2CCCC[C@H]2C(=O)O[C@H]([C@H](C)C[C@@H]2CC[C@@H](O)[C@H](OC)C2)C[C@H](O)[C@H](C)/C=C(\C)[C@H]1O, the Activity (S2 [1]) is reported as “inactive”.
With CO[C@H]1C[C@@H]2CC[C@@H](C)[C@@](O)(O2)C(=O)C(=O)N2CCCC[C@H]2C(=O)O[C@H]([C@H](C)C[C@@H]2CC[C@@H](O)[C@H](OC)C2)CC(=O)[C@H](C)/C=C(\C)[C@@H](O)[C@@H](OC)C(=O)[C@H](C)C[C@H](C)/C=C/C=C/C=C/1C [SIROLIMUS] the Ratio [2] was 15, the Activity (S2 [3]) was “inactive” and the Ratio [4] was 75. The Activity (S2 [1]) was “Active”, the Activity (S2 [5]) was “Active” and the Ratio [6] was 6. The Activity (S2 [7]) was “inactive”, the Activity (Drosophila melanogaster [8]) was “Active” and the Ratio [9] was 22. For the same molecule, the Activity (S2 [10]) was “inactive”, the Activity (S2 [11]) was “Dose-dependent effect” and the Activity (S2 [12]) was “tde”. The Ratio [13] was 50 and the Activity (Drosophila melanogaster [14]) was “Active”.

— ChEMBL document CHEMBL1221195, “Post-translational enzyme activation in an animal via optimized conditional protein splicing” (2007)
